Measured values as given in patent publication US7935530B2, “Polyamides with tail structures capable of binding DNA” (California Institute of Technology, priority 2006, dated 2011).
Entries after “also recorded” stand apart in the source; their conditions may differ.

Experiments:
[1] = test system: EGLN1; assay: HIF-1 induced gene expression, U251 cells (Table 3), EGLN1; format: cell-based, human; settings: HRE ggtgTACGTGcaga, E 100 nM
Method: (§1) U251 cells were plated in 24-well plates at a density of 20−30×10^3 cells per well (40−60×10^3 cells/ml) in RPMI (ATCC) supplemented with 5% FBS (Irvine Scientific). After 24 hours, polyamides were added to the adhered cells in cell media solutions at the appropriate concentration and incubated with the cells for 48 hours. […] When appropriate, echinomycin was added two hours prior to DFO stimulation. Isolation of RNA and subsequent cDNA synthesis were as previously described (19). When appropriate, HIF-1α siRNA (HIF-1α validated stealth duplex, Invitrogen) or mismatch control siRNA with similar GC content (Invitrogen) was transfected 48 hours prior to RNA isolation. Transfection of siRNA was achieved using Lipofectamine 2000 (Invitrogen) according to manufacturer's protocols. Quantitative real-time RT-PCR was performed using SYBR Green PCR Master Mix (Applied Biosystems) on an ABI 7300 instrument. Target gene mRNA was measured relative to β-glucuronidase as an endogenous control. Primer employed were: VEGF, L 5′[…]-3′ (SEQ ID NO:22), R 5′-GGGTACTCC TGGAAGATGTCC-3′ (SEQ ID NO:23); β-glucuronidase, L 5′-[…]-3′ (SEQ ID NO:24), R 5′-[…]-3′ (SEQ ID NO:25); FLT1, L 5′-[…]-3′ (SEQ ID NO:26), R 5′-[…]-3′ (SEQ ID NO:27).

[2] = test system: BNIP3; assay: HIF-1 induced gene expression, U251 cells (Table 3), BNIP3; format: cell-based, human; settings: HRE gccgCACGTGccac, E 100 nM
Method: as §1

[3] = test system: HIF-1α occupancy at the VEGF HRE; assay: Chromatin immunoprecipitation with anti-HIF1α, U251 cells, VEGF HRE; format: cell-based, human; settings: DFO-induced, polyamides 1 μM, echinomycin 100 nM
Method: Cells were plated on 15 cm diameter culture dishes and left to attach overnight. Polyamides were incubated with the cells for 48 h, and the cells were incubated for an additional 16 h after the addition of DFO to a final concentration of 300 μM. Cells were then treated with 1% formaldehyde for 10 min. Chromatin was isolated and sheared. HIF-1 antibodies (Novus Biologicals) were used to immunoprecipitate HIF-1 bound DNA fragments. After crosslink reversal, PCRs using primers flanking the HRE of VEGF were used to assess enrichment of bound fragments as compared to mock-precipitated (no antibody) controls. PCRs were monitored either using SYBR Green PCR Master Mix (Applied Biosystems) on an ABI 7300 instrument, or directly visualized using gel electrophoresis.
(§2) U251 cells were plated in 15 cm diameter plates and left to attach overnight. Media, time course, DFO, polyamide, echinomycin, and siRNA treatments were as described above. After the 16 hour DFO treatment, cells were treated with 1% formaldehyde for 10 minutes. Chromatin was isolated and sheared. HIF-1α antibodies (Novus Biologicals) were used to immunoprecipitate HIF-1-bound DNA fragments. After crosslink reversal, PCRs using primers targeted to the regions of interest were used to assess enrichment of bound fragments as compared to mock-precipitated (no antibody) controls. PCRs were monitored either using SYBR Green PCR Master Mix (Applied Biosystems) on an ABI 7300 instrument, or directly visualized using gel electrophoresis. The following primers were used: VEGF, L 5′-CCTTTGGGTTTTGCCAGA-3′ (SEQ ID NO:28), R 5′-CCAAGTTTGTGGAGCTGA-3′ (SEQ ID NO:29); CA9, L 5′-AAAAGGGCGCTCTGTGAGT-3′ (SEQ ID NO:30), R 5′-GCTGACTGTGGGGTGTCC-3′ (SEQ ID NO:31); PGK1, L 5′-CCCCTAAGTCGGGAAGGTT-3′ (SEQ ID NO:32), R 5′-[…]-3′ (SEQ ID NO:33).

[4] = test system: TFRC; assay: HIF-1 induced gene expression, U251 cells (Table 3), TFRC; format: cell-based, human; settings: HRE agcgTACGTGcctc; R siRNA, E 100 nM, 11.1 and 11.3 1 μM; unit not given
Method: as §1

[5] = test system: VEGF mRNA; assay: DFO-induced VEGF mRNA by quantitative real-time RT-PCR, U251 cells; format: cell-based, human; settings: for HIF-1 induced genes affected: VEGF: HRE tgcaTACGTGggct, E 100 nM, 11.1 and 11.3 1 μM, U251; for Effect on DFO-induced VEGF mRNA (in words) / Effect on induced VEGF expression (in words) / Induction of VEGF mRNA by DFO (in words), FIG. 15a legend: U251 cells; for Effect on DFO-induced VEGF mRNA (in words): 0.2 and 1 μM; for Effect on induced VEGF expression (in words): Example 2, polyamides 1 μM, echinomycin 100 nM; for Induction of VEGF mRNA by DFO (in words), FIG. 15a legend: echinomycin (100 nM), polyamides (10 μM)
Method: Cells were plated in 24-well plates at a density of 15-20×10^3 cells per well (30-40×10^3 cells/ml). Polyamides were added to adhered cells in solutions of cell media at the appropriate concentration and allowed to incubate with the cells for 48 h. […] Cells were harvested, RNA isolated, cDNA synthesized and quantitative real-time RT-PCR conducted as described previously (16). Briefly, RNA was isolated using the RNeasy kit (Qiagen), cDNA synthesized using Powerscript (BD Biosciences) and quantitative real-time RT-PCR performed using SYBR Green PCR Master Mix (Applied Biosystems) on an ABI 7300 instrument. VEGF expression was measured relative to β-glucuronidase (GUSB) as an endogenous control. Statistical analyses of results were determined using three independent biological replicates. The primer sequences used for VEGF and GUSB are available upon request. HeLa cells were purchased from ATCC and U251 cells were received as a gift from Dr Giovanni Melillo of the National Cancer Institute.
as §1

[6] = test system: HIF-1 occupancy at the PGK1 HRE; assay: Chromatin immunoprecipitation of HIF-1α, U251 cells, PGK1 HRE; format: cell-based, human; settings: DFO-induced, polyamides 1 μM, echinomycin 100 nM
Method: as §2

[7] = test system: 5′-ATACGT-3′ sequence within the HRE of the VEGF promoter; assay: Quantitative DNase I footprint titration on pGL2-VEGF-Luc PCR product, VEGF HRE; format: binding; settings: for Ka at the VEGF HRE: Example 2, pGL2-VEGF-Luc
Method: Quantitative DNase I footprint titration experiments were used to determine polyamide-binding affinities (Ka) to the 5′-ATACGT-3′ sequence within the HRE of the VEGF promoter. These experiments were performed using the 5′-^32P-labeled 197 bp PCR amplification product of the plasmid pGL2-VEGF-Luc isolated by non-denaturing gel electrophoresis (16, 21). Quantitative DNase I footprint titration experiments were conducted as reported previously (21).
Quantitative DNase I footprint titration experiments were used to measure the binding affinities of polyamides 11.1, 11.2, 11.3, and echinomycin on 5′ ^32P-labeled fragments of pGL2-VEGF-Luc and pCSJ-FLT1 containing promoter sequences containing the HREs of VEGF and FLT1, respectively. Quantitative DNase I footprint titration experiments were conducted as reported previously (56).

[8] = test system: EDN1; assay: HIF-1 induced gene expression, U251 cells (Table 3), EDN1; format: cell-based, human; settings: HRE aggcAACGTGcagc; E 100 nM, 11.1 and 11.3 1 μM
Method: as §1

[9] = test system: FLT1 mRNA; assay: DFO-induced FLT1 mRNA by quantitative real-time RT-PCR, U251 cells; format: cell-based, human; settings: for HIF-1 induced genes affected: FLT1: HRE gaacAACGTGgaat, E 100 nM, 11.1 and 11.3 1 μM, U251; for Effect on DFO-induced FLT1 mRNA (in words): U251 cells, polyamides 1 μM, echinomycin 100 nM
Method: as §1

SMILES	HIF-1 induced genes affected: EGLN1 ([1]; 11.1 and 11.3 1 μM)	HIF-1 induced genes affected: BNIP3 ([2]; 11.1 and 11.3 1 μM)	HIF-1α occupancy at the VEGF HRE (chromatin immunoprecipitation) [3]	HIF-1 induced genes affected: TFRC [4]	HIF-1 induced genes affected: VEGF [5]	Effect on DFO-induced VEGF mRNA (in words) [5]	Effect on induced VEGF expression (in words) [5]	Induction of VEGF mRNA by DFO (in words), FIG. 15a legend [5]	HIF-1 occupancy at PGK1 (chromatin immunoprecipitation) [6]	HIF-1 induced genes affected: EDN1 [8]	HIF-1 induced genes affected: FLT1 [9]	Ka at the VEGF HRE [7]	further results
CN(CCCNC(=O)c1cccc(C(=O)O)c1)CCCNC(=O)c1cc(NC(=O)c2cc(NC(=O)c3nc(NC(=O)c4cc(NC(=O)[C@H](N)CCNC(=O)c5nc(NC(=O)c6cc(NC(=O)c7cc(NC(=O)c8sccc8Cl)cn7C)cn6C)cn5C)cn4C)cn3C)cn2C)cn1C [Polyamide 11]	1.1	1.3	decreased occupancy of HIF-1α at the VEGF HRE; also recorded: inhibited	1.1	-2.0	inhibited dose dependently; also recorded: dose-dependent inhibition of VEGF	inhibited most of the increase in VEGF mRNA following DFO treatment	decrease VEGF mRNA levels to near non-induced levels	minimally affected	-2.5	-2.0	–	HIF-1α occupancy at the VEGF HRE (chromatin immunoprecipitation) ([3]; listed as 11.1): decreased; Binding affinities (M-1), 5′-TACGTG-3′ (equilibrium association constants) ([7]; mean of three DNase I footprint titration experiments, standard deviations in parentheses, 197 bp PCR product of pGL2-VEGF-Luc): 2.6 (±0.4) × 10^10 M-1; Effect on DFO-induced FLT1 mRNA (in words) ([9]; listed as 11.1): inhibited FLT1 expression; also recorded: decrease FLT1 mRNA levels
CN(CCCNC(=O)c1cccc(C(=O)O)c1)CCCNC(=O)c1cc(NC(=O)c2cc(NC(=O)c3cc(NC(=O)c4nc(NC(=O)[C@H](N)CCNC(=O)c5cc(NC(=O)c6cc(NC(=O)c7nc(NC(=O)c8nccn8C)cn7C)cn6C)cn5C)cn4C)cn3C)cn2C)cn1C [Polyamide 23]	1.0	1.0	more modest effect compared with that of its match congener 11	1.4	-1.3	more modest effect than its match congener 11; also recorded: modest activity at both concentrations	–	more modest effect	minimally affected	1.3	-1.1	8.0 (±1.0)×10^8 M^−1	HIF-1α occupancy at the VEGF HRE (chromatin immunoprecipitation) ([3]; listed as 11.3): less so; also recorded: only modestly affected; Effect on induced VEGF expression (in words) ([5]; listed as 11.3): more modest effect on VEGF mRNA levels; also recorded: modest but measurable effect on VEGF expression; Effect on DFO-induced FLT1 mRNA (in words) ([9]; listed as 11.3): minimal effect; also recorded: minimal or no effect
CS[C@H]1SC[C@H]2C(=O)N(C)[C@@H](C(C)C)C(=O)OC[C@@H](NC(=O)c3cnc4ccccc4n3)C(=O)N[C@@H](C)C(=O)N(C)[C@@H]1C(=O)N(C)[C@@H](C(C)C)C(=O)OC[C@@H](NC(=O)c1cnc3ccccc3n1)C(=O)N[C@@H](C)C(=O)N2C [echinomycin, reference compound]	–	–	decreased	−2.3	-34.0	–	potently inhibits VEGF expression to levels below the non-induced control	potently inhibits VEGF mRNA to below non-induced levels	did not appear to affect HIF-1 occupancy at this locus	-31.0	-4.7	8.4 (±2.1)×10^6 M^−1	HIF-1 induced genes affected: EGLN1 [1]: −19.8; HIF-1 induced genes affected: BNIP3 [2]: −6.0; Effect on DFO-induced FLT1 mRNA (in words) [9]: decrease FLT1 mRNA levels; Effect on DFO-induced FLT1 mRNA (in words) ([9]; listed as Echinomycin): reduced FLT1 expression to below that of the non-induced control
